Patent US20110152092A1, “Herbicidal compositions comprising flufenacet” (Bayer CropScience AG, priority 2009, published 2011)

Tests used:
STEME = assay: Greenhouse trial, PO application, post-emergence action against weeds (test method 2); assay type: in vivo, Stellaria media; details: g of AS/ha: (A) 120, (B) 1200, (C) 120, mixture 120 + 1200 + 120
Protocol: (§1) In the standard design of the test, seeds of various broad-leaved weed and weed grass biotypes (origins) were sown in a 8-13 cm diameter pot filled with natural soil of a standard field soil (loamy silt; non-sterile) and covered with a covering soil layer of about 1 cm. The pots were then cultivated in a greenhouse (12-16 h of light, temperature day 20-22° C., night 15-18° C.) until the time of application. The pots were treated on a laboratory track sprayer with spray liquors comprising the compositions according to the invention, mixtures of the prior art or components used individually. Application of the active compounds or active compound combinations formulated as WG, WP, EC or otherwise was carried out at the appropriate growth stages of the plants. The application rate for the spray application was 100-600 l of water/ha. After the treatment, the plants were returned to the greenhouses.
(§2) About 3 weeks after the application, the soil action or/and foliar action was assessed visually according to a scale of 0-100% in comparison to an untreated comparative group: 0%=no noticeable effect compared to the untreated comparative group; 100%=full effect compared to the untreated comparative group. […]

HORVS [1] = assay: Greenhouse trial, PO application, selective post-emergence action on crop (test method 4); assay type: in vivo, Hordeum vulgare, summer barley; details: g of AS/ha: (A) 120, (B) 1200, (C) 120, mixture 120 + 1200 + 120
Protocol: as §1, §2

HORVS [2] = assay: Greenhouse trial, PE application, selective pre-emergence action on crop (test method 3); assay type: in vivo, Hordeum vulgare, summer barley; details: g of AS/ha: (A) 90, (B) 1200, (C) 90, mixture 90 + 1200
Protocol: as §1, §2

APESV [3] = assay: Greenhouse trial, PO application, post-emergence action against weeds (test method 2); assay type: in vivo, Apera Spica-venti; details: g of AS/ha: (A) 120, (B) 1200, (C) 120, mixture 120 + 1200 + 120
Protocol: as §1, §2

HORVS [4] = assay: Greenhouse trial, pre-sowing application 7 days prior to sowing (test method 5); assay type: in vivo, Hordeum vulgare, summer barley; details: g of AS/ha: (A) 90, (B) 1200, (C) 90, mixture 90 + 1200
Protocol: as §1, §2

LOLPE [5] = assay: Greenhouse trial, PE application, pre-emergence action against weeds (test method 1); assay type: in vivo, Lolium perenne; details: g of AS/ha: (A) 90, (B) 1200, (C) 90, mixture 90 + 1200
Protocol: as §1, §2

AVEFA [6] = assay: Greenhouse trial, PE application with different irrigation variations (test method 6); assay type: in vivo, Avena fatua; details: g of AS/ha: (A) 120, (B) 1200, (C) 90, mixture 120 + 1200 + 90
Protocol: as §1, §2

LOLPE [7] = assay: Greenhouse trial, pre-sowing application 7 days prior to sowing (test method 5); assay type: in vivo, Lolium perenne; details: g of AS/ha: (A) 90, (B) 1200, (C) 90, mixture 90 + 1200
Protocol: as §1, §2

TRZAW = assay: Greenhouse trial, PE application at different sowing depths (test method 9); assay type: in vivo, Triticum aestivum, winter wheat; details: g of AS/ha: (A) 120, (B) 1200, (C) 90, mixture 90 + 1200 + 90
Protocol: as §1
(§3) About 3 weeks after the application, the soil action or/and foliar action was assessed visually according to a scale of 0-100% in comparison to an untreated comparative group: 0%=no noticeable effect compared to the untreated comparative group; 100%=full effect compared to the untreated comparative group.
(§4) (notes: the term “seeds” also includes vegetative propagation forms such as, for example, rhizome pieces; abbreviations used: h light=hours of illumination, g of AS/ha=gram of active substance per hectare, l/ha=liter per hectare, S=sensitive, R=resistant) • 1. Pre-emergence action against weeds: seeds of various broad-leaved weed and weed grass biotypes (origins) were sown in a 8-13 cm diameter pot filled with natural soil of a standard field soil (loamy silt; non-sterile) and covered with a covering soil layer of about 1 cm. The pots were then cultivated in a greenhouse (12-16 h of light, temperature day 20-22° C., night 15-18° C.) until the time of application. The pots were treated at the BBCH stage 00-10 of the seeds/plants on a laboratory track sprayer with spray liquors comprising the compositions according to the invention, mixtures or components used individually, as WG, WP, EC or other formulations. The application rate for the spray application was 100-600 l of water/ha. After the treatment, the plants were returned to the greenhouses and, when required, treated with fertilizer and watered. • 2. Post-emergence action against weeds: seeds of various broad-leaved weed and weed grass biotypes (origins) were sown in a 8-13 cm diameter pot filled with natural soil of a standard field soil (loamy silt; non-sterile) and covered with a covering soil layer of about 1 cm. The pots were then cultivated in a greenhouse (12-16 h of light, temperature day 20-22° C., night 15-18° C.) until the time of application. […]

APESV [8] = assay: as above; assay type: in vivo, Apera Spica-venti; details: g of AS/ha: (A) 120, (B) 1200, (C) 90, mixture 90 + 1200 + 90
Protocol: as §1, §3
(notes: the term “seeds” also includes vegetative propagation forms such as, for example, rhizome pieces; abbreviations used: h light=hours of illumination, g of AS/ha=gram of active substance per hectare, l/ha=liter per hectare, S=sensitive, R=resistant) • 1. Pre-emergence action against weeds: seeds of various broad-leaved weed and weed grass biotypes (origins) were sown in a 8-13 cm diameter pot filled with natural soil of a standard field soil (loamy silt; non-sterile) and covered with a covering soil layer of about 1 cm. The pots were then cultivated in a greenhouse (12-16 h of light, temperature day 20-22° C., night 15-18° C.) until the time of application. […]

AVEFA [9] = assay: Greenhouse trial, pre-sowing application 7 days prior to sowing (test method 5); assay type: in vivo, Avena fatua; details: g of AS/ha: (A) 90, (B) 1200, (C) 90, mixture 90 + 1200
Protocol: as §1, §2

TRZAS = assay: Greenhouse trial, PE application with different irrigation variations (test method 6); assay type: in vivo, Triticum aestivum, summer wheat; details: g of AS/ha: (A) 120, (B) 1200, (C) 90, mixture 120 + 1200 + 90
Protocol: as §1, §3, §4

LOLPE [10] = assay: Greenhouse trial, PO application, post-emergence action against weeds (test method 2); assay type: in vivo, Lolium perenne; details: g of AS/ha: (A) 120, (B) 1200, (C) 120, mixture 120 + 1200 + 120
Protocol: as §1, §2

For `CCC(CC)Nc1c([N+](=O)[O-])cc(C)c(C)c1[N+](=O)[O-]` [(B) pendimethalin, N-(1-ethylpropyl)-3,4-dimethyl-2,6-dinitrobenzenamine], which “activity STEME (visual, scale 0-100%)” value (STEME) is on record?
The value was 30%.

What about the “activity on crop plant HORVS (visual, scale 0-100%)” value (HORVS [1]) of the same compound?
Its value is 10%.

What about the “activity on crop plant HORVS (visual, scale 0-100%)” value (HORVS [2]) of the same compound?
The value was 50%.

And the “activity APESV (visual, scale 0-100%)” value (APESV [3])?
The value was 0%.

What about the “activity on crop plant HORVS (visual, scale 0-100%)” value (HORVS [4]) of the same compound?
The value was 30%.

What about the “activity LOLPE (visual, scale 0-100%)” value (LOLPE [5]) of the same compound?
The value was 10%.

What about the “activity AVEFA (visual, scale 0-100%)” value (AVEFA [6]; irrigation from above) of the same compound?
Its value is 80%.

And the “activity AVEFA (visual, scale 0-100%)” value (AVEFA [6]; irrigation from below)?
The value was 40%.

What about the “activity LOLPE (visual, scale 0-100%)” value (LOLPE [7]) of the same compound?
Its value is 80%.

And the “activity on crop plant TRZAW 5 mm (visual, scale 0-100%)” value (TRZAW; sowing depth 5 mm)?
Its value is 45%.

And the “activity on crop plant TRZAW 20 mm (visual, scale 0-100%)” value (TRZAW; sowing depth 20 mm)?
Its value is 10%.

And the “activity APESV 5 mm (visual, scale 0-100%)” value (APESV [8]; sowing depth 5 mm)?
The value was 0%.

And the “activity APESV 20 mm (visual, scale 0-100%)” value (APESV [8]; sowing depth 20 mm)?
Its value is 0%.

What about the “activity AVEFA (visual, scale 0-100%)” value (AVEFA [9]) of the same compound?
The value was 70%.

What about the “activity on crop plant TRZAS (visual, scale 0-100%)” value (TRZAS; irrigation from above) of the same compound?
The value was 50%.

And the “activity on crop plant TRZAS (visual, scale 0-100%)” value (TRZAS; irrigation from below)?
Its value is 0%.

And the “activity LOLPE (visual, scale 0-100%)” value (LOLPE [10])?
Its value is 0%.
